Among the data in US11407737B2, “Inhibitors of RAF kinases” (Kinnate Biopharma Inc., priority 2020, dated 2022) are IC50 values, retold here.

pIC50: −log10 of the molar value.

The first assay deals with human RAF1 (Homo sapiens (Human), UniProt P04049). Nature of the assay: Protein kinase assay (radiometric 33P-ATP, MEK1 (K97R) substrate), RAF-1. In kind it is biochemical.
human RAF1, sequence (P04049 whole entry): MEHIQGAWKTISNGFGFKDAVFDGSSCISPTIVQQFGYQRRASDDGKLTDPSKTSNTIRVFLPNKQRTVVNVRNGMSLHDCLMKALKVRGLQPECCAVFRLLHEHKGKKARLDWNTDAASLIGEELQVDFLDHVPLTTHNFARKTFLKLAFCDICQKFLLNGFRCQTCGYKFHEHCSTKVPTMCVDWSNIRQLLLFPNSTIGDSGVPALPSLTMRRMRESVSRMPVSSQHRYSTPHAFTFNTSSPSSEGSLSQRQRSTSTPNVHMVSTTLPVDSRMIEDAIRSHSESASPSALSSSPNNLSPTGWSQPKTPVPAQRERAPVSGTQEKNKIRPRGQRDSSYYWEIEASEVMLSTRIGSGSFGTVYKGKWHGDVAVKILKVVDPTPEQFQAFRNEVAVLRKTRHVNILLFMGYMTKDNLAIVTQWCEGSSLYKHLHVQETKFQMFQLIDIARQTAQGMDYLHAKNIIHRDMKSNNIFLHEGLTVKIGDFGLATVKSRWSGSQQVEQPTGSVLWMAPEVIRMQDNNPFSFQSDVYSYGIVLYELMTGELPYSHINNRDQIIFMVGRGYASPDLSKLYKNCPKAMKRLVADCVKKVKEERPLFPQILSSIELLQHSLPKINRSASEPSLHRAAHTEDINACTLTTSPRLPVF
Settings: not given
The protocol: Example 1: Kinase Assay Protocol
Assay platform was used to measure kinase/inhibitor interactions as described previously (Anastassiadis et al., 2011). In brief, for each reaction, kinase and substrate were mixed in a buffer containing 20 mM HEPES (pH 7.5), 10 mM MgCl2, 1 mM EGTA, 0.02% Brij35, 0.02 mg/mL BSA, 0.1 mM Na3VO4, 2 mM DTT, and 1% DMSO. All compounds were solubilized in DMSO. Compounds were then added to each reaction mixture via acoustic dispense using an ECHO 550 nanoliter dispenser. For human RAF1 testing, human MEK1 (K97R) was used as a substrate at a concentration of 3 micromolar, with a final ATP concentration of 10 micromolar. For human BRAF testing, human MEK1 (K97R) was used as a substrate at 1 micromolar concentration, with a final ATP concentration of 25 micromolar. […] After a 20-min incubation, ATP (Sigma-Aldrich, St. Louis, Mo. 63178) and [g33P] ATP (specific activity 10 microCi/microliter) purchased at PerkinElmer (Boston, Mass., 02118 Cat #BLU 003H250UC) were added at a final total concentration of […]. Reactions were carried out at room temperature for 2 hr and spotted onto P81 ion exchange cellulose chromatography paper (Reaction Biology). Filter paper was washed in 0.75% phosphoric acid to remove unincorporated ATP. The percent remaining kinase activity relative to a vehicle-containing (DMSO) kinase reaction was calculated for each kinase/inhibitor pair. IC50 values were calculated using Prism 5 (GraphPad).
Molecule `Cc1ccc(NC(=O)N2CC[C@@H](CC(F)(F)F)C2)cc1-c1cc(C(=O)NC[C@@H](C)O)nc(N2CCOCC2)c1` [Example 5, N-[(2R)-2-hydroxypropyl]-4-[2-methyl-5-[(3S)-3-(2,2,2-trifluoroethyl)pyrrolidine-1-carbonylamino]phenyl]-6-(morpholin-4-yl)pyridine-2-carboxamide] gave a negative logarithm of the IC50 (pIC50) of 8.00 to 9.00.

The same assay, now with this note: human MEK1 (K97R) substrate 3 micromolar, ATP 10 micromolar; 10-dose, 3-fold serial dilution starting at 10 micromolar; read-out: RAF-1 IC50.
As to `Cc1cc(F)c(NC(=O)N2CC[C@@H](C(F)(F)C(F)(F)F)C2)cc1-c1cc(-c2cnn(C)c2)nc(N2CCOCC2)c1` (single isomer, unassigned) [Example 80], the pIC50 is 8.00 to 9.00.
The same measure, in the same setting: the result for `Cc1cc(F)c(NC(=O)N2CC[C@H](C(F)(F)C(F)(F)F)C2)cc1-c1cc(-c2cnn(C)c2)nc(N2CCOCC2)c1` (single isomer, unassigned) [Example 81] reads 8.00 to 9.00; that for `Cc1cc(F)c(NC(=O)N2CC[C@@H](C(C)(C)C)C2)cc1-c1cc(-c2cnn(C)c2)nc(N2CCOCC2)c1` (single isomer, unassigned) [Example 82], 8.00 to 9.00.
For the molecule `Cc1cc(F)c(NC(=O)N2CC[C@@H](C(C)(F)F)C2)cc1-c1cc(-c2cnn(C)c2)nc(N2CCOCC2)c1` (single isomer, unassigned) [Example 84], the pIC50 was over 9.00.
Still for that read-out and setting: the same measure for `Cc1cc(-c2cc(NC(=O)N3CC[C@@H](CC(F)(F)F)C3)ccc2C)cc(N2CCOCC2)n1` [Example 1, (3S)—N-[4-methyl-3-[2-methyl-6-(morpholin-4-yl)pyridin-4-yl]phenyl]-3-(2,2,2-trifluoroethyl)pyrrolidine-1-carboxamide]: 8.00 to 9.00.
On the same count and under the same terms, the result for `Cc1ccc(NC(=O)N2CC[C@@H](CC(F)(F)F)C2)cc1-c1cc(C(N)=O)nc(N2CCOCC2)c1` [Example 2, 4-[2-methyl-5-[(3S)-3-(2,2,2-trifluoroethyl)pyrrolidine-1-carbonylamino]phenyl]-6-(morpholin-4-yl)pyridine-2-carboxamide] reads 8.00 to 9.00; that for `CNC(=O)c1cc(-c2cc(NC(=O)N3CC[C@@H](CC(F)(F)F)C3)ccc2C)cc(N2CCOCC2)n1` [Example 3, N-methyl-4-[2-methyl-5-[(3S)-3-(2,2,2-trifluoroethyl)pyrrolidine-1-carbonylamino]phenyl]-6-(morpholin-4-yl)pyridine-2-carboxamide], 8.00 to 9.00.
On to `Cc1ccc(NC(=O)N2CC[C@@H](CC(F)(F)F)C2)cc1-c1cc(C(=O)NCCO)nc(N2CCOCC2)c1` [Example 4, N-(2-hydroxyethyl)-4-[2-methyl-5-[(3S)-3-(2,2,2-trifluoroethyl)pyrrolidine-1-carbonylamino]phenyl]-6-(morpholin-4-yl)pyridine-2-carboxamide], for which the pIC50 was 8.00 to 9.00.
As to `Cc1ccc(NC(=O)N2CC[C@@H](CC(F)(F)F)C2)cc1-c1cc(C(=O)N[C@H](C)CO)nc(N2CCOCC2)c1` [Example 6, N-[(2R)-1-hydroxypropan-2-yl]-4-[2-methyl-5-[(3S)-3-(2,2,2-trifluoroethyl)pyrrolidine-1-carbonylamino]phenyl]-6-(morpholin-4-yl)pyridine-2-carboxamide], the pIC50 was 8.00 to 9.00.
In the case of `Cc1ccc(NC(=O)N2CC[C@@H](CC(F)(F)F)C2)cc1-c1cc(C(=O)NC[C@H](C)O)nc(N2CCOCC2)c1` [Example 7, N-[(2S)-2-hydroxypropyl]-4-[2-methyl-5-[(3S)-3-(2,2,2-trifluoroethyl)pyrrolidine-1-carbonylamino]phenyl]-6-(morpholin-4-yl)pyridine-2-carboxamide], the pIC50 was over 9.00.
Same read-out and setting: the same measure for `Cc1ccc(NC(=O)N2CC[C@@H](CC(F)(F)F)C2)cc1-c1cc(C(=O)N[C@@H](C)CO)nc(N2CCOCC2)c1` [Example 8, N-[(2S)-1-hydroxypropan-2-yl]-4-[2-methyl-5-[(3S)-3-(2,2,2-trifluoroethyl)pyrrolidine-1-carbonylamino]phenyl]-6-(morpholin-4-yl)pyridine-2-carboxamide]: over 9.00.

The pIC50 is −log10 of the IC50, conventionally taken in molar units.
